Data from patent publication US12251373B2, “Compounds and methods of treating retinal degeneration” (CASE WESTERN RESERVE UNIVERSITY, priority 2017, dated 2025).
pEC50: −log10 of the molar value. Read-outs that look alike come from different tables or passages of the source.

What was measured:
mouse P23H opsin mutant = mouse P23H opsin mutant (Mus musculus, UniProt P15409, P23H); assay: β-Gal fragment complementation assay: rescue of P23H opsin transport from ER to plasma membrane, U2OS(PLC-EA/P23H-PK) cells; assay type: cell-based; settings: for Emax: U2OS; for dependence of activity on light exposure of cells: cells exposed to light vs dark
Source text: U2OS(PLC-EA/P23H-PK) cells. A U2OS stable cell line was generated by DiscoveRx, Inc. (Fremont, CA, USA) for the β-Gal fragment complementation assay used in the small molecule HTS for rescue of P23H opsin transport. U2OS cells that continually express P23H-PK and PLC-EA fusion proteins were generated. Briefly, this small subunit of […] (PK fragment) was fused to the C-terminal of the mouse P23H opsin mutant, while the large EA fragment, a subunit of […], was fused with PLC, a plasma membrane anchored peptide. Both constructs were subcloned by DicoveRx, Inc. and transferred into U2OS cells by viral infections. Positive clones were selected under treatment with hygromycin and geneticin.
Briefly, U2OS(PLC-EA/P23H-PK) cells were suspended in assay medium at 3×10^5 cells mL^−1. The cell suspension was dispensed into 384-well plates (Greiner Bio-one, Monroe, NC, USA) at 20 μL per well, with a Multidrop dispenser (Thermo Scientific, Waltham, MA, USA). Plates with cells then were centrifuged at 200 g for 15 s before incubation at 37° C. with 5% CO2. Plates were removed 24 h later for treatment with tested compounds. A total of 248 plates containing 79,080 compounds from three small molecule libraries were paired with an equal number of assay plates with cultured cells. Due to a limited capacity, these plates were assayed in seven batches. An average of 56.3 nL of 10 mM compound in DMSO was dispensed into each well from column 3 to 22 of paired assay plates using a 50 nL 384-pintool system, such that the final concentration of each compound was 22.52 μM on average. […] Each assay plate was shaken for 5 s before further incubation at 37° C. with 5% CO2. […] Assay plates were incubated in the dark for 60-90 min, and luminescence was read from each assay plate with an Envision microplate reader (PerkinElmer) during a 0.1 s per well integration time. The mean and s.d. of readouts in column 2 of each plate were calculated as Mean0% and SD0%, whereas the average and s.d. of readouts in column 23 were calculated as Mean100% and SD100%. Equation 1: Activity scores (%)=(RLUcp−Mean0%)/(Mean100%−Mean0%)×100%, where RLUcp is the relative luminescence unit derived for cells treated with a compound. Equation 2: Z′-factor=1-3×(SD0%+SD100%)/(Mean100%−Mean0%); Equation 3: signal-to-background (S/B) ratio=Mean100%/Mean0%. Activities of all tested compounds were registered with their compound ID by GeneData Screener (Genedata, Basel, Switzerland) and Pipeline Pilot software (Accelrys, San Diego, CA, USA). Hits, cherry-picked from a separate stock dose-dependent activity test, were selected with an activity score cutoff at 20%. Activity of each hit was tested again with the β-Gal fragment complementation assay in a 10-dose series with each dose tested in triplicate. The 10 doses tested were 80, 40, 20, 10, 5, 2.5, 1.25, 0.625, 0.313, and 0.156 μM. Dose-dependent curves of each hit compound were fitted with GeneData and Origin software.
Detailed synthetic steps are described in FIG. 18. […] YC-002-YC-021 were purchased from commercial vendors including Enamine LLC (Monmouth Jct., NJ, USA), Matrix Scientific (Columbia, SC, USA) and Tokyo Chemical Industry Co., Ltd. (Portland, OR, USA). […] Activities of YC compounds were tested with the β-Gal fragment complementation assay, as described in a prior section. All YC compounds were tested at 10 doses, each in triplicate: 80, 40, 20, 10, 5, 2.5, 1.25, 0.625, 0.313, and 0.156 μM.

P23H opsin = biological target: T1, P23H opsin (Mus musculus, UniProt P15409, P23H); assay: Immunoblot of P23H opsin glycosylation in NIH3T3 cells; assay type: cell-based; set-up: key to Improved glycosylation: n = no; y = yes; settings: for Improved glycosylation: P23H opsin; for glycosylation of P23H opsin (in words): immunoblot, PNGaseF, FIG. 3A-D
T1 construct: expressed in transfected cells
Procedure: NIH3T3-(P23H-opsin/GFP) or NIH3T3-(WT-opsin/GFP) cells were seeded in a 48-well plate (Corning Costar) at 3.2×10^5 cells per well and incubated at 37° C. with 5% CO2 for 2 h. One hundred-μL of assay medium containing a compound at 5× its final concentration was added to each well. The plate was gently shaken for 5 s before further incubation at 37° C. with 5% CO2 for 24 h. The assay medium then was aspirated, and cells were lysed with 100 μL per well PBS containing 0.1% Triton X-100 and complete protease inhibitor cocktail (Roche, Basel, Switzerland) followed by sonication for 3 s. Protein concentrations were determined with the Bradford assay. For PNGase F catalyzed deglycosylation, 3 μL of PNGase F (1,500 U, NEB) was added to the cell lysate and the mixture was incubated at room temperature for 1 h before immunoblotting. For NIH3T3-(P23H-opsin/GFP) cells, 15 μg of total protein were loaded per well onto an SDS-polyacrylamide gel; whereas for NIH3T3-(WT-opsin/GFP) cells, 10 μg of total protein was loaded per well. Opsin protein was immunostained with 0.2 μg mL^−1 horseradish peroxidase-conjugated 1D4 anti-rhodopsin antibody. Band intensities were measured with ImageJ software (http://imagej.nih.gov/ij/; National the Institutes of Health, Bethesda, MD, USA) and normalized to a glyceraldehyde 3-phosphate dehydrogenase (GAPDH) loading control.

bovine rod opsin = biological target: T2, bovine rod opsin (Bos taurus, UniProt P02699); assay: Gt activation assay; assay type: biochemical
T2 construct: Constitutive activity of bovine opsin in disc membranes; from tissue; host or cells: bovine ROS membranes (opsin membranes and Gt both from bovine ROS)
Procedure: Gt was extracted and purified from frozen bovine ROS membranes as described in Preparation of Opsin Membranes. The intrinsic increase in the fluorescence from Gtα was measured with a L55 luminescence spectrophotometer (PerkinElmer Life Sciences) using an excitation and emission wavelengths of 300 and 345 nm, respectively. […] DMSO-treated opsin membranes were used to obtain a baseline for the basal activity of opsin. The molar ratio of opsin to Gt was 1:10, with opsin at a concentration of 100 nM and Gt at 1000 nM. […] This step was followed by the addition of 300 μM GTPγS (Sigma-Aldrich) to determine the GTPγS-induced complex dissociation and corresponding fluorescence changes. Gt activation rates were determined and plotted for the first 100 s of the Gt activation assay.

[1] = Table 1, scores relative to 9-cis-retinal, read-out: β-Gal fragment complementation assay Activity score (%) EC50
[2] = Table 1, experimental maximum, read-out: β-Gal fragment complementation assay Activity score (%) Max (Exp)
[3] = Table 1, fitted maximum, read-out: β-Gal fragment complementation assay Activity score (%) Max (fit)

T2 sequence (P02699 whole entry): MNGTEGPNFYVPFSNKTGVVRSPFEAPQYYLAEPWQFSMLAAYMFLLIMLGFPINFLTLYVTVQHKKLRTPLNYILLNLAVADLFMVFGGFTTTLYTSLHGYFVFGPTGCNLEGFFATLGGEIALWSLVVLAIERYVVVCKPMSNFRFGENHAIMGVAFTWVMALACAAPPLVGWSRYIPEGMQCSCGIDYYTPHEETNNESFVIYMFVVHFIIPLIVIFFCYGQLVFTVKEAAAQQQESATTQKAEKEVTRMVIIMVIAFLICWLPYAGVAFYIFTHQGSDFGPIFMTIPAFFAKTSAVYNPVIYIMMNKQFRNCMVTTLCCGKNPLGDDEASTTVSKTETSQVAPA

| activity in rescuing P23H opsin transport (in words) (mouse P23H opsin mutant) | pEC50 (mouse P23H opsin mutant; [1]) | Emax (mouse P23H opsin mutant; [2]) [%] | Emax (mouse P23H opsin mutant; [3]) [%] | Improved glycosylation (P23H opsin) | glycosylation of P23H opsin (in words) (P23H opsin) | ln(kinitial), rate of Gt activation of regenerated isorhodopsin upon illumination (bovine rod opsin; 40 μM 9-cis-retinal alone) | Compound | dependence of activity on light exposure of cells (mouse P23H opsin mutant) | time to maximum activity (mouse P23H opsin mutant; FIG. 1F, 40 μM YC-001) [h] | pEC50 (mouse P23H opsin mutant; HTS hit confirmation, FIG. 1E, read-out: potency) | pEC50 (mouse P23H opsin mutant; Table 5, more than one site modified, read-out: Potency) | Emax (mouse P23H opsin mutant; read-out: Efficacy (%)) [%] | effect of co-treatment with scriptaid on P23H opsin transport (mouse P23H opsin mutant; YC-001 and scriptaid co-treatment) | effect of co-treatment with 9-cis-retinal (mouse P23H opsin mutant; with 5 μM 9-cis-retinal, FIG. 1G) | ln(kinitial), initial rate of Gt activation for opsin (bovine rod opsin; 40 μM compound, basal opsin activity) | ln(kinitial), rate of Gt activation of regenerated isorhodopsin upon illumination (bovine rod opsin; co-treated with 40 μM 9-cis-retinal and 40 μM YC-001) |
| --- | --- | --- | --- | --- | --- | --- | --- | --- | --- | --- | --- | --- | --- | --- | --- | --- |
| strong activity | 5.51 | 98 | 98.2 | n | does not affect the glycosylation |  | O=C(CCCCCN1C(=O)c2cccc3cccc(c23)C1=O)NO [Scriptaid, reference compound] |  |  |  |  |  |  |  |  |  |
|  | 5.57 | 123 | 159 | y | improvement of glycosylation | −4.6 | CC1=C(/C=C/C(C)=C\C=C\C(C)=C\C=O)C(C)(C)CCC1 [9-cis-retinal, reference compound] | required that cells be incubated in the dark |  |  |  |  |  |  |  |  |

| Compound | activity in rescuing P23H opsin transport (in words) (mouse P23H opsin mutant) | pEC50 (mouse P23H opsin mutant; [1]) | Emax (mouse P23H opsin mutant; [2]) [%] | Emax (mouse P23H opsin mutant; [3]) [%] | Improved glycosylation (P23H opsin) | glycosylation of P23H opsin (in words) (P23H opsin) | ln(kinitial), rate of Gt activation of regenerated isorhodopsin upon illumination (bovine rod opsin; 40 μM 9-cis-retinal alone) | dependence of activity on light exposure of cells (mouse P23H opsin mutant) | time to maximum activity (mouse P23H opsin mutant; FIG. 1F, 40 μM YC-001) [h] | pEC50 (mouse P23H opsin mutant; HTS hit confirmation, FIG. 1E, read-out: potency) | pEC50 (mouse P23H opsin mutant; Table 5, more than one site modified, read-out: Potency) | Emax (mouse P23H opsin mutant; read-out: Efficacy (%)) [%] | effect of co-treatment with scriptaid on P23H opsin transport (mouse P23H opsin mutant; YC-001 and scriptaid co-treatment) | effect of co-treatment with 9-cis-retinal (mouse P23H opsin mutant; with 5 μM 9-cis-retinal, FIG. 1G) | ln(kinitial), initial rate of Gt activation for opsin (bovine rod opsin; 40 μM compound, basal opsin activity) | ln(kinitial), rate of Gt activation of regenerated isorhodopsin upon illumination (bovine rod opsin; co-treated with 40 μM 9-cis-retinal and 40 μM YC-001) |
| --- | --- | --- | --- | --- | --- | --- | --- | --- | --- | --- | --- | --- | --- | --- | --- | --- |
| O=C1OCC(c2ccc(Cl)s2)=C1c1cccs1 [YC-001] |  | 5.06 | 310 | 310 | y | improvement of glycosylation |  | not affected | ≤ 15 | 5.11 | 5.08 | 248 | synergistic effect | No additive effect | −6.1 | −4.9 |
